Converted amounts (≈) assume the structure as drawn. Read-outs that look alike come from different tables or passages of the source.
Experiments:
[1] = Pharmacokinetic evaluation in BALB/c mice after intravenous and oral administration; assay type: in vivo; conditions: mouse, plasma, BALB/c mice (female), single intravenous injection and oral administration; for clearance: read-out: Clearance rate; for AUC: read-out: Concentration integral AUC; for half-life: read-out: Half-life T1/2 (converted); for bioavailability: read-out: bioavailability F
Procedure: Experimental objective: pharmacokinetics evaluation of the compound in BALB/c nude mice.
The rodent pharmacological characteristics of the compound after intravenous administration and oral administration were tested by a standard protocol, the candidate compound in the experiment was formulated into a clear solution, and the mice were administered by a single intravenous injection and oral administration. The intravenous and oral vehicles are a certain proportion of aqueous hydroxypropyl 3-cyclodextrin or physiological saline solution.

[2] = Tissue distribution (PK) in BALB/c nude mice bearing human colon cancer LoVo xenografts; assay type: in vivo; conditions: mouse, LoVo xenograft mice, oral 40 mg/kg twice a day for three weeks, after last administration
Procedure: (1) In vivo PD study of the compound used on tumors of human colon cancer LoVo cells subcutaneously xenografted to BALB/c nude mice model
Experimental method: the experimental animals used were BALB/c nude mice (provided by Shanghai Xipuer-Beikai Experimental animal CO., Ltd), 6-8 weeks old, weighting 18-22 g.
Human colon cancer LoVo cells, monolayer-cultured in vitro, culturing condition was Ham's F-12 medium supplemented with 10% fetal bovine serum, 100 U/mL penicillin, 100 μg/mL streptomycin and 2 mM glutamine, 37° C., 5% CO2. Conventional digestion treatment passage was done with trypsin-EDTA twice a week. When the cell saturation reached 80%-90%, the cells were collected, counted, and inoculated. 0.1 mL (10×106) of LoVo cells were subcutaneously inoculated into the right back of each nude mouse, and group administration was started when the average tumor volume reached 213 mm^3. The administration mode was oral administration, 40 mg/kg twice a day for three consecutive weeks.
After the last administration of the experiment, a portion of plasma, tumor, intestine, brain, lung, liver and pancreas was collected from the number 1-2 animals after 0.5 h of administration, and quick-froze for PK detection; a portion of plasma, tumor, intestine, brain, lung, liver and pancreas was collected from the number 3-4 animals after 2 h of administration, and quick-froze for PK detection; a portion of plasma, tumor, intestine, brain, lung, liver and pancreas was collected from the number 5-6 animals after 8 h of administration, and quick-froze for PK detection. The tumor, intestine, brain, lung, liver and pancreas were weighted separately and added 9 times volumes of homogenate MeOH/15 mM PBS (1:2, v:v) for homogenization. 20 μL sample was added into 300 μL of the stop buffer including internal standard for protein precipitation, and shaked to mix well. The mixture was centrifuged at 13,000 rpm for 10 minutes at 20-25° C., and 3 μL of the supernatant was taken for LCMS analysis.

[3] = Thermodynamic solubility determination; assay type: physicochemical; conditions: for solubility at 24 h: buffer, 22 °C, aqueous buffer, thermodynamic from solid
Procedure: No less than 2 mg sample powder was weighted in a Whatman miniuniprep vial. If the experiment required to test the thermodynamic solubility of the sample in multiple buffer solutions, then separate vial was required for each test.
[…] After addition of the buffer, the Whatman filter cap of the miniuniprep is mounted and pressed until it was above the liquid level to allow the filter to contact with the buffer solution during shaking. The solubility sample was vortexed for 2 minutes. And the solution phenomenon was recorded. Then the vial was shaked at room temperature (about 22 to 25° C.) for 24 hours at a speed of 550 rpm. And the Whatman Miniunipreps filter cap was pressed to bottom to obtain the filtrate of the solubility solution of the sample. All sample vials should conduct filtration for the insoluble matter before and after and osmotic phenomenon. The […] was diluted 50 times to obtain a sample dilution.
Three UV standard solutions were injected from low to high concentrations into HPLC, and then dilution and supernatant of the test compounds were injected. The sample was injected and tested twice. Integration was conducted to the UV peaks. The standard curve was established and the thermodynamic solubility of the sample was calculated.

Wee1 = Wee1 (Homo sapiens (Human), UniProt P30291); experiment: In vitro enzymatic inhibitory activity (33P-ATP filter-binding kinase assay, MBP substrate); assay type: biochemical; conditions: Wee-1 150 nM, MBP 20 μM
Summary of the method: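 Wee1 at 150 nM with 20 μM MBP substrate in pH 7.5 HEPES buffer (10 mM MgCl2, 2 mM DTT, 1% DMSO) was preincubated 20 min at RT with compounds in a 10-point 3-fold dilution series. The reaction was started with ^33P-ATP and run 2 h at RT. Kinase activity was measured by filter binding.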

[4] = pH 6.5, shaken 24 hours at room temperature, read-out: Solubility (μM) pH 6.5
[5] = pH 7.4, shaken 24 hours at room temperature, read-out: Solubility (μM) pH 7.4

Chain of Wee1 (P30291 whole entry): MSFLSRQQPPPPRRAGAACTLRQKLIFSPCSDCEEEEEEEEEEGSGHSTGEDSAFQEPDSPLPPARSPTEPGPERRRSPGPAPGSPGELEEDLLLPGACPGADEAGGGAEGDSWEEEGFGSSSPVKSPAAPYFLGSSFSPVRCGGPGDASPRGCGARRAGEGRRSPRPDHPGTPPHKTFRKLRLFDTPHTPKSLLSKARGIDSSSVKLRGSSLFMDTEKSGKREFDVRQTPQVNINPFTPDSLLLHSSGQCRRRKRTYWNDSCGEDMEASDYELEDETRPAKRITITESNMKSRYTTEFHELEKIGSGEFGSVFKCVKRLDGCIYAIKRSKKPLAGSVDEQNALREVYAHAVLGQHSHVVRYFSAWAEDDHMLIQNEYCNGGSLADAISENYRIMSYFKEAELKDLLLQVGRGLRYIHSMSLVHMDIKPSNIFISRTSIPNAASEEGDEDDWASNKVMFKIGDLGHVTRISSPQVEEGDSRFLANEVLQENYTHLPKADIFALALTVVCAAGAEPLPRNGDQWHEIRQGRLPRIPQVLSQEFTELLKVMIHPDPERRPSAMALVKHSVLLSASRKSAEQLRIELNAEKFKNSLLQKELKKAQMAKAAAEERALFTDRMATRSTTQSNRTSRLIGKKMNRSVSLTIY

Structure (SMILES): C=CCn1c(=O)c2cnc(Nc3ccc(N4CCN(C)CC4)cc3)nc2n1-c1cccc(C(C)(C)O)n1 [AZD1775, reference compound]
- clearance [1]: 85.7 mL/min/kg
- AUC [1]: 1.2 µM·h
- half-life [1]: 15 min
- bioavailability [1]: 31%
- AUC(0-t) ([2]; Colon): 225 µM·h
- Cmax ([2]; Colon): 238 µM
- Tmax ([2]; Colon): 30 min
- AUC(0-t) ([2]; liver): 117 µM·h
- Cmax ([2]; liver): 38.1 µM
- Tmax ([2]; liver): 30 min
- AUC(0-t) ([2]; lung): 36.5 µM·h
- Cmax ([2]; lung): 17.2 µM
- Tmax ([2]; lung): 30 min
- AUC(0-t) ([2]; pancreas): 55.5 µM·h
- Cmax ([2]; pancreas): 35.6 µM
- Tmax ([2]; pancreas): 30 min
- AUC(0-t) ([2]; plasma): 6.97 µM·h
- Cmax ([2]; plasma): 3.07 µM
- Tmax ([2]; plasma): 30 min
- AUC(0-t) ([2]; tumer (tumor)): 15.3 µM·h
- Cmax ([2]; tumer (tumor)): 3.85 µM
- Tmax ([2]; tumer (tumor)): 120 min
- solubility at 24 h [3, 4]: 434 µM (≈ 217 µg/mL)
- solubility at 24 h [3, 5]: 68.8 µM (≈ 34.4 µg/mL)

Structure (SMILES): C=CCn1c(=O)c2cnc(Nc3ccc(N4CCC5(CCN(C)CC5)CC4)cc3)nc2n1-c1cccc(C(C)(C)O)n1 [Embodiment 29, 2-allyl-1-(6-(2-hydroxypropan-2-yl)pyridin-2-yl)-6-((4-(9-methyl-3,9-diazaspiro[5.5]undecan-3-yl)phenyl)amino)-1H-pyrazolo[3,4-d]pyrimidin-3(2H)-one]
- IC50 (Wee1): 13.4 nM
- clearance [1]: 51 mL/min/kg
- AUC [1]: 2.15 µM·h
- half-life [1]: 89.4 min
- bioavailability [1]: 32.4%
- solubility at 24 h [3, 4]: 1470 µM (≈ 835 µg/mL)
- solubility at 24 h [3, 5]: 1050 µM (≈ 595 µg/mL)
- solubility in water ([3]; in words, compared to AZD1775, pH=6.5 and pH=7.4): excellent solubility in water

Structure (SMILES): C=CCn1c(=O)c2cnc(Nc3ccc(N4CCC5(CCN(C)CC5)CC4)cc3)nc2n1-c1cccc(C2(F)COC2)n1 [Embodiment 43, 2-allyl-1-(6-(3-fluorooxetan-3-yl)pyridin-2-yl)-6-((4-(9-methyl-3,9-diazaspiro[5.5]undecan-3-yl)phenyl)amino)-1H-pyrazolo[3,4-d]pyrimidin-3(2H)-one]
- IC50 (Wee1): 12.1 nM
- clearance [1]: 23 mL/min/kg
- AUC [1]: 5.59 µM·h
- half-life [1]: 109 min
- bioavailability [1]: 45.1%

Source: US10954253B2, “1,2-dihydro-3H-pyrazolo[3,4-d]pyrimidin-3-one derivative as Wee1 inhibitor” (SHIJIAZHUANG SAGACITY NEW DRUG DEVELOPMENT CO., LTD., priority 2017, dated 2021)
